Assay results taken from patent US20120142646A1, “Novel Compounds 621” (priority 2006, published 2012).
Where a name gives a salt, the structure may show the parent alone.

These compounds were tested against T1, Adrenergic β2 (Homo sapiens, UniProt P07550) (assay: Adrenergic β2 mediated cAMP production in H292 cells (AlphaScreen cAMP detection)). Details: Intrinsic Activity as a fraction relative to the maximum activity determined for formoterol.
T1 construct: Adherent H292 cells were removed from tissue culture flasks; endogenous in cells; host or cells: H292 cells
T1 sequence (P07550 whole entry): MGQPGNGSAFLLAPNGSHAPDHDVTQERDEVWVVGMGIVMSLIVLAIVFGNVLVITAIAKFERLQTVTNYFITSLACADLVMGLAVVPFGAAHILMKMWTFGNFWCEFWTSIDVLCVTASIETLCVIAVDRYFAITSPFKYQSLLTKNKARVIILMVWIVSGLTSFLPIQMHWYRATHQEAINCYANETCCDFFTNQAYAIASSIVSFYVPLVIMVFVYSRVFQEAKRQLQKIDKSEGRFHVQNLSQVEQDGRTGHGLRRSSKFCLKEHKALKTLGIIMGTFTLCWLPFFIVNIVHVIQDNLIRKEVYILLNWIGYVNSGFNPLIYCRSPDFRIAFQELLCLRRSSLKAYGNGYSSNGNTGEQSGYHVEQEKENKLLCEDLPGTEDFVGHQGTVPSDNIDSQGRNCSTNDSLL
Assay type: cell-based
Parameters: key to β2 Int Act: fraction of formoterol maximum activity (formoterol = 1)
Method in brief: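 H292 cells pre-treated 10 min with rolipram (300 μM final), then given agonist for 60 min at room temperature in HBSS/10 mM HEPES pH 7.4, 1.6% DMSO final. Lysate cAMP measured by AlphaScreen against a cAMP standard curve. Four-parameter fit gives pEC50; intrinsic activity relative to formoterol maximum.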
In the case of O=C1COc2c(CCNCCN(C(=O)CCNCCc3ccc(Cl)c(Cl)c3)C3CCCCC3)ccc(O)c2N1 [Example 30, N-Cyclohexyl-3-(3,4-dichlorophenethylamino)-N-(2-(2-(5-hydroxy-3-oxo-3,4-dihydro-2H-benzo[b][1,4]oxazin-8-yl)ethylamino)ethyl)propanamide bis(trifluoroacetate)], the “β2 Int Act” value is reported as 0.92. CCCC[C@@H](C)N(CCNCCc1ccc(O)c2c1OCC(=O)N2)C(=O)CCNCCc1ccccc1 [Example 25, (R)—N-(Hexan-2-yl)-N-(2-(2-(5-hydroxy-3-oxo-3,4-dihydro-2H-benzo[b][1,4]oxazin-8-yl)ethylamino)ethyl)-3-(phenethylamino)propanamide bis(trifluoroacetate)] was tested, and the “β2 Int Act” value was 0.9. CC[C@@H](C)N(CCNCCc1ccc(O)c2[nH]c(=O)ccc12)C(=O)CCOCCc1ccccc1.Cl [Example 79, (R)—N-sec-Butyl-N-(2-(2-(8-hydroxy-2-oxo-1,2-dihydroquinolin-5-yl)ethylamino)ethyl)-3-phenethoxypropanamide hydrochloride] was tested, and the “β2 Int Act” value was 0.92. With O=C(CCNCCc1cccc(F)c1)N(CCNCCc1ccc(O)c2[nH]c(=O)ccc12)C1CCCCC1 [Example 19, N-Cyclohexyl-3-(3-fluorophenethylamino)-N-(2-(2-(8-hydroxy-2-oxo-1,2-dihydroquinolin-5-yl)ethylamino)ethyl)propanamide] the “β2 Int Act” value was 0.87. In the case of Cc1cccc(CCNCCC(=O)N(CCNCCc2ccc(O)c3[nH]c(=O)ccc23)C2CCCCCC2)c1 [Example 8, N-Cycloheptyl-N-(2-(2-(8-hydroxy-2-oxo-1,2-dihydroquinolin-5-yl)ethylamino)ethyl)-3-(3-methylphenethylamino)propanamide bis(trifluoroacetate)], the “β2 Int Act” value is reported as 0.79. For O=C1Cc2c(CCNCCN(C(=O)CCNCCc3cccc(F)c3)C3CCCCC3)ccc(O)c2N1 [Example 20, N-Cyclohexyl-3-(3-fluorophenethylamino)-N-(2-(2-(7-hydroxy-2-oxoindolin-4-yl)ethylamino)ethyl)propanamide dihydrobromide], the “β2 Int Act” value was 0.78.
